Test results taken from US10463670B2, “Use of non-peptide NK1 antagonists in a predetermined dose for the treatment of cancer” (SERVICIO ANDALUZ DE SALUD, priority 2013, dated 2019).

Assays:
[1] = system: human lymphoma; reference BC-1; experiment: Lymphoma BC-1 tumours implanted s.c. in nude mice, Aprepitant alone; format: in vivo
Protocol: (§1) Immunocompromised female mice, 5-6 weeks of age were used, nu/nu Balb/c nude mice, provided by Harlan Iberica Barcelona (Spain). They were kept at 24° C. and in sterile conditions with food and water “ad libitum”. They were injected with 2×10^7 tumour cells, corresponding to cancer (human lung cancer, reference HCC-44 supplied by DSMZ) in 200 μl of PBS subcutaneous route. The tumour size was measured and the mice were evaluated for their state of health and weight daily. The mice were randomized in nine groups when the tumours reached a volume of 75 mm^3. One of the groups was treated with 200 μl of placebo (control group) and the eight remaining groups with doses of 10 (group 1), 20 (group 2), 30 (group 3), 40 (group 4), 50 (group 5), 60 (group 6), 70 (group 7) and 80 (group 8) mg per kilogram of weight and day of the NK1 receptor antagonist Aprepitant. 3 animals were treated per group, during 28 days. All the mice were sacrificed at the end of the experiment.
(§2) Immunocompromised female mice, 5-6 weeks of age were used, in the same conditions as explained in example 1. They were injected with 2×10^7 tumour cells, corresponding to a haematological cell line tumour (human lymphoma; reference BC-1; supplied by DSMZ) in 200 μl of PBS by subcutaneous route. The tumour size was measured and the mice were evaluated for their state of health and weight daily. The mice were randomized in nine groups when the tumours reached a volume of 75 mm^3. One of the groups was treated with 200 μl of placebo (control group) and the eight remaining groups with doses of 10 (group 1), 20 (group 2), 30 (group 3), 40 (group 4), 50 (group 5), 60 (group 6), 70 (group 7) and 80 (group 8) mg per kilogram of weight and day of the NK1 receptor antagonist Aprepitant. 3 animals were treated per group, during 28 days. All the mice were sacrificed at the end of the experiment.

[2] = system: human neuroblastoma; reference KELLY; experiment: Neuroblastoma KELLY tumours implanted s.c. in nude mice, Aprepitant alone; format: in vivo
Protocol: as §1
as §2, with “an embryonic” for “a haematological cell line”, “neuroblastoma;” for “lymphoma;”, “KELLY;” for “BC-1;”

[3] = system: Human adenocolon cancer SW-403; experiment: MTS cell proliferation, nanomolar antagonist, SW-403; format: cell-based; settings: Aprepitant 1, 5 and 7 nM, vs cells grown in the absence of antagonist, time dependant
Protocol: (§3) Cell cultures of various commercial tumour cell lines stated in table 13 were used. [table] […] The number of cells was quantified using a Coulter counter. […] The culture plates were grown in the presence of increasing concentrations of non-peptide NK1 receptor antagonists. To obtain the staining in the proliferation assays, 20 μl of MTS were added to each one of the wells of the cell culture plates 90 minutes before reading the samples in a multiscan spectrophotometer (TECAN Spectra classic, Barcelona, Spain) at 492 nm (assay wavelength) and 690 nm (reference wavelength). The different doses were tested in duplicate and each experiment was performed in triplicate. The antagonist Aprepitant was used at the following concentrations: 1 nanomolar -nM-, 5 nanomolar -nM- and 7 nanomolar -nM-. […] As proliferation control, the cells were grown in the absence of said antagonist. This is expressed in FIGS. 1 to 10.

Human breast cancer MT-3 = experiment: MTS cell proliferation, nanomolar antagonist, MT-3; format: cell-based; settings: Aprepitant 1, 5 and 7 nM, vs cells grown in the absence of antagonist, time dependant
Protocol: as §3

Human lung cancer A-427 = experiment: MTS cell proliferation, nanomolar antagonist, A-427; format: cell-based; settings: Aprepitant 1, 5 and 7 nM, vs cells grown in the absence of antagonist, time dependant
Protocol: as §3

Human glioma GAMG = experiment: MTS cell proliferation, nanomolar antagonist, GAMG; format: cell-based; settings: Aprepitant 1, 5 and 7 nM, vs cells grown in the absence of antagonist, time dependant
Protocol: as §3

[4] = system: Human B cell lymphoma BC-1; experiment: MTS cell proliferation, nanomolar antagonist, BC-1; format: cell-based; settings: Aprepitant 1, 5 and 7 nM, vs cells grown in the absence of antagonist, time dependant
Protocol: as §3

Human melanoma MEL HO = experiment: MTS cell proliferation, nanomolar antagonist, MEL HO; format: cell-based; settings: Aprepitant 1, 5 and 7 nM, vs cells grown in the absence of antagonist, time dependant
Protocol: as §3

[5] = system: Human neuroblastoma KELLY; experiment: MTS cell proliferation, nanomolar antagonist, KELLY; format: cell-based; settings: Aprepitant 1, 5 and 7 nM, vs cells grown in the absence of antagonist, time dependant
Protocol: as §3

[6] = Aprepitant 10 mg/kg/day, 7 days
[7] = Aprepitant 10 mg/kg/day, 14 days
[8] = Aprepitant 10 mg/kg/day, 21 days
[9] = Aprepitant 10 mg/kg/day, 28 days
[10] = Aprepitant 20 mg/kg/day, 7 days
[11] = Aprepitant 20 mg/kg/day, 14 days
[12] = Aprepitant 20 mg/kg/day, 21 days
[13] = Aprepitant 20 mg/kg/day, 28 days
[14] = Aprepitant 30 mg/kg/day, 7 days
[15] = Aprepitant 30 mg/kg/day, 14 days
[16] = Aprepitant 30 mg/kg/day, 21 days
[17] = Aprepitant 30 mg/kg/day, 28 days
[18] = Aprepitant 40 mg/kg/day, 7 days
[19] = Aprepitant 40 mg/kg/day, 14 days
[20] = Aprepitant 40 mg/kg/day, 21 days
[21] = Aprepitant 40 mg/kg/day, 28 days
[22] = Aprepitant 50 mg/kg/day, 7 days
[23] = Aprepitant 50 mg/kg/day, 14 days
[24] = Aprepitant 50 mg/kg/day, 21 days
[25] = Aprepitant 50 mg/kg/day, 28 days
[26] = Aprepitant 60 mg/kg/day, 7 days
[27] = Aprepitant 60 mg/kg/day, 14 days
[28] = Aprepitant 60 mg/kg/day, 21 days
[29] = Aprepitant 60 mg/kg/day, 28 days
[30] = Aprepitant 70 mg/kg/day, 7 days
[31] = Aprepitant 70 mg/kg/day, 14 days
[32] = Aprepitant 70 mg/kg/day, 21 days
[33] = Aprepitant 70 mg/kg/day, 28 days
[34] = Aprepitant 80 mg/kg/day, 7 days
[35] = Aprepitant 80 mg/kg/day, 14 days
[36] = Aprepitant 80 mg/kg/day, 21 days
[37] = Aprepitant 80 mg/kg/day, 28 days

`C[C@@H](O[C@H]1OCCN(Cc2n[nH]c(=O)[nH]2)[C@H]1c1ccc(F)cc1)c1cc(C(F)(F)F)cc(C(F)(F)F)c1` [Aprepitant] was tested, and the “Tumour size (mean volume of the tumour)” value [1, 6] was 210 ± 3 cubic millimeters, the “Tumour size (mean volume of the tumour)” value [1, 7] was 195 ± 6 cubic millimeters and the “Tumour size (mean volume of the tumour)” value [1, 8] was 175 ± 7 cubic millimeters. For the same molecule, the “Tumour size (mean volume of the tumour)” value [1, 9] was 170 ± 6 cubic millimeters, the “Tumour size (mean volume of the tumour)” value [1, 10] was 195 ± 6 cubic millimeters and the “Tumour size (mean volume of the tumour)” value [1, 11] was 175 ± 7 cubic millimeters. For the same molecule, the “Tumour size (mean volume of the tumour)” value [1, 12] was 160 ± 6 cubic millimeters, the “Tumour size (mean volume of the tumour)” value [1, 13] was 150 ± 7 cubic millimeters and the “Tumour size (mean volume of the tumour)” value [1, 14] was 180 ± 7 cubic millimeters. For the same molecule, the “Tumour size (mean volume of the tumour)” value [1, 15] was 155 ± 4 cubic millimeters, the “Tumour size (mean volume of the tumour)” value [1, 16] was 145 ± 8 cubic millimeters and the “Tumour size (mean volume of the tumour)” value [1, 17] was 140 ± 4 cubic millimeters. For the same molecule, the “Tumour size (mean volume of the tumour)” value [1, 18] was 165 ± 8 cubic millimeters, the “Tumour size (mean volume of the tumour)” value [1, 19] was 165 ± 6 cubic millimeters and the “Tumour size (mean volume of the tumour)” value [1, 20] was 130 ± 5 cubic millimeters. The “Tumour size (mean volume of the tumour)” value [1, 21] was 110 ± 6 cubic millimeters, the “Tumour size (mean volume of the tumour)” value [1, 22] was 150 ± 5 cubic millimeters and the “Tumour size (mean volume of the tumour)” value [1, 23] was 145 ± 7 cubic millimeters. The “Tumour size (mean volume of the tumour)” value [1, 24] was 120 ± 6 cubic millimeters, the “Tumour size (mean volume of the tumour)” value [1, 25] was 100 ± 7 cubic millimeters and the “Tumour size (mean volume of the tumour)” value [1, 26] was 130 ± 6 cubic millimeters. For the same molecule, the “Tumour size (mean volume of the tumour)” value [1, 27] was 130 ± 8 cubic millimeters, the “Tumour size (mean volume of the tumour)” value [1, 28] was 100 ± 7 cubic millimeters and the “Tumour size (mean volume of the tumour)” value [1, 29] was 85 ± 4 cubic millimeters. The “Tumour size (mean volume of the tumour)” value [1, 30] was 110 ± 4 cubic millimeters, the “Tumour size (mean volume of the tumour)” value [1, 31] was 105 ± 4 cubic millimeters and the “Tumour size (mean volume of the tumour)” value [1, 32] was 80 ± 5 cubic millimeters. The “Tumour size (mean volume of the tumour)” value [1, 33] was 80 ± 7 cubic millimeters, the “Tumour size (mean volume of the tumour)” value [1, 34] was 95 ± 6 cubic millimeters and the “Tumour size (mean volume of the tumour)” value [1, 35] was 85 ± 6 cubic millimeters. The “Tumour size (mean volume of the tumour)” value [1, 36] was 65 ± 3 cubic millimeters, the “Tumour size (mean volume of the tumour)” value [1, 37] was 65 ± 9 cubic millimeters and the “Tumour size (mean volume of the tumour)” value [2, 6] was 180 ± 4 cubic millimeters. For the same molecule, the “Tumour size (mean volume of the tumour)” value [2, 7] was 165 ± 6 cubic millimeters, the “Tumour size (mean volume of the tumour)” value [2, 8] was 140 ± 5 cubic millimeters and the “Tumour size (mean volume of the tumour)” value [2, 9] was 120 ± 2 cubic millimeters. The “Tumour size (mean volume of the tumour)” value [2, 10] was 175 ± 7 cubic millimeters, the “Tumour size (mean volume of the tumour)” value [2, 11] was 155 ± 7 cubic millimeters and the “Tumour size (mean volume of the tumour)” value [2, 12] was 130 ± 4 cubic millimeters. The “Tumour size (mean volume of the tumour)” value [2, 13] was 105 ± 4 cubic millimeters, the “Tumour size (mean volume of the tumour)” value [2, 14] was 160 ± 3 cubic millimeters and the “Tumour size (mean volume of the tumour)” value [2, 15] was 145 ± 3 cubic millimeters. The “Tumour size (mean volume of the tumour)” value [2, 16] was 115 ± 3 cubic millimeters, the “Tumour size (mean volume of the tumour)” value [2, 17] was 90 ± 6 cubic millimeters and the “Tumour size (mean volume of the tumour)” value [2, 18] was 155 ± 6 cubic millimeters. The “Tumour size (mean volume of the tumour)” value [2, 19] was 130 ± 6 cubic millimeters, the “Tumour size (mean volume of the tumour)” value [2, 20] was 105 ± 7 cubic millimeters and the “Tumour size (mean volume of the tumour)” value [2, 21] was 75 ± 8 cubic millimeters. The “Tumour size (mean volume of the tumour)” value [2, 22] was 140 ± 4 cubic millimeters, the “Tumour size (mean volume of the tumour)” value [2, 23] was 110 ± 5 cubic millimeters and the “Tumour size (mean volume of the tumour)” value [2, 24] was 95 ± 7 cubic millimeters. For the same molecule, the “Tumour size (mean volume of the tumour)” value [2, 25] was 60 ± 5 cubic millimeters, the “Tumour size (mean volume of the tumour)” value [2, 26] was 130 ± 5 cubic millimeters and the “Tumour size (mean volume of the tumour)” value [2, 27] was 115 ± 7 cubic millimeters. For the same molecule, the “Tumour size (mean volume of the tumour)” value [2, 28] was 85 ± 3 cubic millimeters, the “Tumour size (mean volume of the tumour)” value [2, 29] was 55 ± 9 cubic millimeters and the “Tumour size (mean volume of the tumour)” value [2, 30] was 120 ± 6 cubic millimeters. The “Tumour size (mean volume of the tumour)” value [2, 31] was 95 ± 8 cubic millimeters, the “Tumour size (mean volume of the tumour)” value [2, 32] was 65 ± 6 cubic millimeters and the “Tumour size (mean volume of the tumour)” value [2, 33] was 40 ± 5 cubic millimeters. The “Tumour size (mean volume of the tumour)” value [2, 34] was 105 ± 7 cubic millimeters, the “Tumour size (mean volume of the tumour)” value [2, 35] was 85 ± 6 cubic millimeters and the “Tumour size (mean volume of the tumour)” value [2, 36] was 45 ± 5 cubic millimeters. The “Tumour size (mean volume of the tumour)” value [2, 37] was 25 ± 6 cubic millimeters, the “Proliferation of tumour cells (MTS)” value [3] was “increase was observed of proliferation” and the “Proliferation of tumour cells (MTS)” value (Human breast cancer MT-3) was “increase was observed of proliferation”. For the same molecule, the “Proliferation of tumour cells (MTS)” value (Human lung cancer A-427) was “increase was observed of proliferation”, the “Proliferation of tumour cells (MTS)” value (Human glioma GAMG) was “increase was observed of proliferation” and the “Proliferation of tumour cells (MTS)” value [4] was “increase was observed of proliferation”. The “Proliferation of tumour cells (MTS)” value (Human melanoma MEL HO) was “increase was observed of proliferation” and the “Proliferation of tumour cells (MTS)” value [5] was “increase was observed of proliferation”.
